Reference: patent US7544814B2, “[3.2.0] Heterocyclic compounds and methods of using the same” (Nereus Pharmaceuticals, Inc., priority 2004, dated 2009)
Where “and” joins values, the source holds several entries; their conditions need not be identical. Equal values may be shown once. Read-outs that look alike come from different tables or passages of the source.

What was measured:
[1] = biological target: T1, trypsin-like activity of purified rabbit muscle 20S proteasome (Oryctolagus cuniculus, UniProt G1SWK8); experiment: In vitro inhibition of 20S proteasome trypsin-like activity (Boc-LRR-AMC)
T1 sequence (G1SWK8 1-271): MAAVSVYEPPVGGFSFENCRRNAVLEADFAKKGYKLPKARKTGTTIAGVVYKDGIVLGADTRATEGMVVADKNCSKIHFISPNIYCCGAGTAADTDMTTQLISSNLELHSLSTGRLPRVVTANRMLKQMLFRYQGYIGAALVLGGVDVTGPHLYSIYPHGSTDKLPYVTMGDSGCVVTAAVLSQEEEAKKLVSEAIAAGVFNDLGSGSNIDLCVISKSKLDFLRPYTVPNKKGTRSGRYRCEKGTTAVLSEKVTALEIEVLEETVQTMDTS

[2] = test system: B16-F10
[3] = test system: HL-60/MX2; experiment: Cell growth inhibition (resazurin), multidrug resistant HL-60/MX2; details: from EC50 values
Description: Concentrations ranging from 6.32 μM to 2 nM were tested for II-2 and II-4.
HL-60/MX2 is a multidrug resistant tumor cell line derived from the human promyelocytic leukemia cell line, HL-60 and expresses reduced topoisomerase II activity. […] Mitoxantrone, the topoisomerase II targeting agent was included as a control.

[4] = test system: PC-3; experiment: Cell growth inhibition (resazurin), PC-3; assay type: cell-based, human; details: from EC50 values
[5] = test system: U266; experiment: Cell growth inhibition (resazurin), U266; details: for EC50: 48 hours drug exposure
[6] = test system: MES-SA; experiment: Cell growth inhibition (resazurin), MES-SA; assay type: cell-based, human; details: for cytotoxic activity against MES-SA, in words: from EC50 values
[7] = test system: OVCAR-3; experiment: Cell growth inhibition (resazurin), OVCAR-3
[8] = test system: RPMI 8226; experiment: Cell growth inhibition (resazurin), RPMI 8226; details: for EC50: 48 hours drug exposure; for cytotoxicity against RPMI 8226, in words: from EC50 values
[9] = biological target: T2, caspase-like activity of purified rabbit muscle 20S proteasome (Oryctolagus cuniculus, UniProt A0A5F9DQW2); experiment: In vitro inhibition of 20S proteasome caspase-like activity (Z-LLE-AMC)
T2 sequence (A0A5F9DQW2 1-212): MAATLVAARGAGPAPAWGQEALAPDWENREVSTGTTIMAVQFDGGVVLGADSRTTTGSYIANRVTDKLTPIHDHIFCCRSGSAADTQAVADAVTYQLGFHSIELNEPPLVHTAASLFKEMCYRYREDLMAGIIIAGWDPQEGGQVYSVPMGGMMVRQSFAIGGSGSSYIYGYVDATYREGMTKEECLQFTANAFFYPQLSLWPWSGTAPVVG

[10] = test system: HT-29; experiment: Cell growth inhibition (resazurin), HT-29; details: for cytotoxicity against HT-29, in words: from EC50 values
[11] = test system: HL-60; experiment: Cell growth inhibition (resazurin), HL-60; assay type: cell-based, human; details: for EC50: Table 4, 48 hours drug exposure; for cytotoxic activity against HL-60, in words: from EC50 values
[12] = test system: NF-κB; experiment: NF-κB-mediated luciferase reporter gene assay, HEK293 NF-κB/Luc cells, TNF-α stimulation; assay type: cell-based, human; details: for EC50: 1 hr pretreatment, TNF-α 6 hr; for effect on luciferase activity upon TNF-α stimulation, in words: pretreatment of NF-κB/Luc 293 cells
Description: The HEK293 NF-κB/luciferase reporter cell line is a derivative of the human embryonic kidney cell line (ATCC; CRL-1573) and carries a luciferase reporter gene under the regulation of 5× NF-κB binding sites. […] When performing the luciferase assay, the DMEM basal medium was replaced with phenol-red free DMEM basal medium and the G418 was omitted.
For NF-κB-mediated luciferase assays, HEK293 NF-κB/luciferase cells were seeded at 1.5×10^4 cells/well in 90 μl phenol-red free DMEM complete medium into Corning 3917 white opaque-bottom tissue culture plates. For Formula II-2, Formula II-4, Formula II-5A, and Formula II-18, a 400 μM starting dilution was made in 100% DMSO and this dilution was used to generate a 8-point half log dilution series. […] For Formula II-20, a 2.5 mM or 8 mM starting solution was made in 100% DMSO and the final test concentrations ranged from 6.3 μM to 2.0 nM or 20 μM to 6.3 nM, respectively. The plates were returned to the incubator for 1 hour. After 1 hr pretreatment, 10 μl of a 50 ng/ml TNF-α solution, prepared in the phenol-red free DMEM medium was added, and the plates were incubated for an additional 6 hr.
At the end of the TNF-α stimulation, 100 μl of Steady Lite HTS luciferase reagent (Packard Bioscience) was added to each well and the plates were left undisturbed for 10 min at room temperature before measuring the luciferase activity. The relative luciferase units (RLU) were measured by using a Fusion microplate fluorometer (Packard Bioscience).

[13] = biological target: T3, chymotrypsin-like activity of purified rabbit muscle 20S proteasome (Oryctolagus cuniculus, UniProt G1T4Q9); experiment: In vitro inhibition of 20S proteasome chymotrypsin-like activity (suc-LLVY-AMC)
T3 sequence (G1T4Q9 1-263): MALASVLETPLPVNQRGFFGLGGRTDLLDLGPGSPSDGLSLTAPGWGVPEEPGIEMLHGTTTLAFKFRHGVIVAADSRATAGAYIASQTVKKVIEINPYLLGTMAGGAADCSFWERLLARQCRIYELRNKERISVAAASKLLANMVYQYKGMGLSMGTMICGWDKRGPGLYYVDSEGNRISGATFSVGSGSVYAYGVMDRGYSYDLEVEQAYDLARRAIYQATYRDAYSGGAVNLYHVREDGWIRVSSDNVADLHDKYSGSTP

[14] = test system: NCI-H292; experiment: Cell growth inhibition (resazurin), NCI-H292; details: from EC50 values
[15] = biological target: T1, trypsin-like activity of purified rabbit muscle 20S proteasome; experiment: biochemical
[16] = test system: MDA-MB-231; experiment: Cell growth inhibition (resazurin), MDA-MB-231; details: for EC50: Homo sapiens, MDA-MB-231, 48 h, read-out: EC50 against MDA-MB-231; for cytotoxicity against MDA-MB-231, in words: from EC50 values
[17] = test system: U266
[18] = test system: B16-F10; experiment: Cell growth inhibition (resazurin), B16-F10; details: 48 hours drug exposure, mean ± SD where n≥3
[19] = test system: MES-SA/Dx5; experiment: Cell growth inhibition (resazurin), multidrug resistant MES-SA/Dx5; assay type: cell-based, human; details: from EC50 values
[20] = Homo sapiens, RPMI-8226, 48 h, read-out: RPMI 8226 EC50, Table 2, mean ± SD where n≥3
[21] = read-out: RPMI 8226 EC50, Table 2, mean ± SD where n≥3
[22] = EC50 values, chymotrypsin-like activity

SMILES	cytotoxicity against B16-F10, in words [2]	cytotoxic activity against HL-60/MX2, in words [3]	cytotoxicity against PC-3, in words [4]	EC50 ([5]; read-out: U266 EC50, Table 2) [nM]	cytotoxic activity against MES-SA, in words [6]	EC50 [8, 20] [nM]	cytotoxicity against RPMI 8226, in words [8]	EC50 [8, 21] [nM]	cytotoxicity against HT-29, in words [10]	EC50 ([11]; Homo sapiens, HL-60, 48 h) [nM]	cytotoxic activity against HL-60, in words [11]	effect on luciferase activity upon TNF-α stimulation, in words [12]	EC50 [13, 22] [nM]	cytotoxicity against NCI-H292, in words [14]	EC50 [16] [nM]	cytotoxicity against MDA-MB-231, in words [16]	further results
C[C@@]12OC(=O)[C@]1([C@@H](O)C1CCCCC1)NC(=O)[C@@H]2CCBr [Formula II-4]	cytotoxic	retained cytotoxic activity	cytotoxic	34	cytotoxic activity	57	cytotoxic	51	cytotoxic	143	retained cytotoxic activity	dose-dependent decrease	13 to 88	cytotoxic	114 ± 4	cytotoxic	inhibition of the trypsin-like activity of the 20S proteasome, in words [1]: able to inhibit; EC50 ([1]; read-out: EC50 Trypsin-like): 110 nM; cytotoxicity against U266, in words ([5]; from EC50 values): cytotoxic; EC50 ([6]; Homo sapiens, MES-SA, 48 h, Table 3, 48 hours drug exposure): 140 nM; EC50 ([7]; Homo sapiens, OVCAR-3, 48 h, read-out: EC50 against OVCAR-3): > 6320 nM; EC50 ([9]; EC50 Caspase-like, Table 6, values in nM): 850 nM and 637 nM; EC50 ([9]; EC50 values, caspase-like activity, summary of Table 6): 213 to 850 nM; EC50 ([12]; Homo sapiens, HEK293, Table 5, values printed in nM, read-out: EC50, NF-κB-mediated luciferase reporter gene assay): 67 nM; EC50 ([12]; read-out: EC50, NF-κB-mediated luciferase reporter gene assay, Table 5, values in nM): 88 nM; EC50 ([13]; EC50 Chymotrypsin-like, Table 6, values in nM): 13 nM; EC50 [15]: 107 nM
C[C@@]12OC(=O)[C@]1([C@@H](O)C1CCCCC1)NC(=O)[C@@H]2CCCl [Formula II-2]	cytotoxic	retained cytotoxic activity	cytotoxic	32	cytotoxic activity	49	cytotoxic	45	cytotoxic	237	retained cytotoxic activity	dose-dependent decrease	13 to 88	cytotoxic	121 ± 23	cytotoxic	inhibition of the trypsin-like activity of the 20S proteasome, in words ([1]; under the conditions tested): able to inhibit; cytotoxicity against U266, in words [17]: cytotoxic; EC50 ([5]; Homo sapiens, U-266, 48 h, read-out: U266 EC50, Table 2): 39 nM; cytotoxicity against OVCAR-3, in words ([7]; from EC50 values): cytotoxic; EC50 ([8]; Homo sapiens, RPMI-8226, 48 h, read-out: EC50 against RPMI 8226, Table 1): 49 nM; EC50 ([9]; EC50 Caspase-like, Table 6, values in μM): 1300 nM and 1700 nM; EC50 ([9]; EC50 values, caspase-like activity, range in mixed units, summary of Table 6, range from nM to μM): 956 to 8700 nM; EC50 ([10]; Homo sapiens, HT-29, 48 h, read-out: EC50 against HT-29): 129 ± 21 nM; EC50 [11]: 176 nM; EC50 ([12]; Homo sapiens, HEK293, read-out: EC50, NF-κB-mediated luciferase reporter gene assay, Table 5, values in nM): 71 ± 20 nM; EC50 ([18]; Mus musculus, B16-F10, 48 h, read-out: EC50 against B16-F10, Table 1): 194 nM; EC50 ([18]; read-out: EC50 against B16-F10, Table 1): 180 nM; EC50 ([13]; read-out: EC50 Chymotrypsin-like): 19 nM; cytotoxic activity against MES-SA/Dx5, in words [19]: cytotoxic activity
